Laboratory results reported in article PMC7934871 (JCI Insight, 2021).
Non-standard residues stand in square brackets, D forms with d. No end group written: not given here. pY = N[C@@H](Cc1ccc(OP(=O)(O)O)cc1)C(=O)O

Tested on: STAT3 signaling
Assay: Gene expression of STAT3 targets by quantitative PCR
Assay type: cell-based
Details: 1 μM, with or without IL-6 stimulation, n = 3
Method: Figure 8 PS-Gp130 and PS-MYC blocking peptides efficiently internalize into tumor cells to exert their functions. (A) For 1 hour 1 μM of PS-conjugated MYC (PS-MYC) and Gp130 (PS-Gp130) were incubated with cancer cells. PS-scramble MYC (PS-SC-MYC) was used as a control for PS-MYC. The peptide uptake was visualized by confocal microscopy and quantified by flow cytometry. Data are representative of 3 independent experiments (n = 3). (B) Upper panel: The binding of PS-Gp130 and STAT3 was examined by immunoprecipitation and Western blotting. PO-Gp130 was used as a control. For 4 hours prior to harvest, 1 μM of peptide was incubated with cells. […] (C) Gene expression of STAT3 targets was examined by quantitative PCR after the treatment with 1 μM of PS-Gp130 with or without IL-6 stimulation as described above. […] (D) A total of 1 μM of PS-SC-MYC or PS-MYC was incubated with cells for 48 hours before the gene expression of MYC targets was examined by quantitative PCR. […]
Total RNA was extracted from cultured or tumor tissues using RNeasy kit (QIAGEN), according to manufacturer’s instruction. After cDNA synthesis using iScript cDNA Synthesis kit (Bio-Rad), samples were analyzed using pairs of primers specific for CASP9, CASP3, CASP8, BIRC5, BCL2L1, MYC, TP53, VEGF, IL1B, SERPIN3, FGA, CDK4, CCND2, CDKN2A, CDKN2B, GADD45A, mCD274, mMmp9, and mBirc5, as indicated. […]

PS-Gp130: PS-conjugated Gp130 peptide (amino acids 901–910) with phospho-Tyr905 (MPKS[pY]LPQTV; also: phosphorothioate oligonucleotide conjugate; UniProt P40189 901-910, looked up, fragment)
STAT3 signaling (gene expression of STAT3 targets): significantly blocked
